Results as given in patent US20230233671A1, “RNA MOLECULES” (Pfizer Inc., priority 2021, published 2023).

Legend:
VZV gE [1] = test: Frequency of gE-specific IgG+ B cells in splenocytes of LAV-experienced C57BL/6 mice (flow cytometry); type: in vivo; conditions: percentage of IgG-expressing B cells
Description: (§1) VZV RNA-LNP vaccines were tested for their ability to induce IgG and T cell responses in C57BL/6 mice. 15 mice per group were immunized in accordance with the schedule and specification in Table 11. Briefly, 10 or 15 mice per group were primed subcutaneously (SQ) on Day 0 with a live-attenuated varicella (LAV) vaccine (VARIVAX®, Merck) using a full human dose per mouse (1350 pfu), immunized intramuscularly (IM) on Day 35 day and boosted on Day 63. The “infection” with a LAV vaccine mimics exposure to VZV that humans receive when infected with VZV as children and develop chickenpox.
(§2) Mice immunized with SHINGRIX® received 1, 2.5, or 5 μg, corresponding to 1/50, 1/20, and 1/10 of the human clinical dose, respectively; mice immunized with gE_WT CO2 received 0.5 or 1 μg VZV RNA-LNP; mice immunized with ms5 CO1 received 0.5 or 1 ug VZV RNA-LNP; mice immunized with ms6 CO2 received 0.5 or 1 ug VZV RNA-LNP; and mice immunized with lyophilized gE_WT CO2 received 0.5 or 1 ug VZV RNA-LNP. Saline was administered on Day 35 and 63 to a negative control group. Sera was collected from mice on Day 35, 63 and 76 for characterization of VZV gE-binding IgG levels (LUMINEX® analyses). Spleens were harvested on Day 48 (13 days post dose 1 for selected groups) and Day 76 for cellular analysis (T cell and B cell responses).
Vaccine-induced B cell response was evaluated by measuring the frequencies of VZV gE-specific B cells in the spleen. Wild type gE protein ectodomain with streptag was coupled to streptavidin (SA)-fluorochromes PE and APC, both from BioLegend in the ratio of 2:1 in separate tubes for 1 hour at room temperature (RT) at 20× of desired staining concentration (10 μg/mL for each protein). Each of the SA-fluorochrome-coupled spike proteins were pooled and diluted to 1× using flow cytometry (FC) buffer (2% FBS/PBS) to generate B-cell probes to identify gE-specific B cells. Single cell suspensions of splenocytes (5×10^6 cells per well) were first washed in PBS and stained with eFluor 506 Fixable Viability dye for 10 minutes at RT to identify live from dead cells. Following washes in FC buffer, cells were incubated with 50 μL/well of 1×B-cell probe for 30 to 45 minutes and then washed to remove unbound probes. Cells were surface stained with a cocktail of flow cytometry antibodies (CD19, IgD, IgM, IgD, All from BioLegend) to identify B cell surface phenotypes. Following washing, cells were fixed using BD Fixation buffer and suspended in FC buffer. Cells were acquired on LSR Fortessa and data analyzed by FlowJo (10.7.1). The results of gE-specific B cells were expressed as the percentage of IgG-expressing B cells.

VZV gE [2] = test: Serum VZV gE-binding IgG levels (LUMINEX) in LAV-experienced C57BL/6 mice; type: in vivo; conditions: for Day 35 (GMC), serum gE-binding IgG: C57BL/6 mice, LAV SQ Day 0, Day 35 prior to immunization; for Day 63 (GMC), serum gE-binding IgG / Day 76 (GMC), serum gE-binding IgG: LAV-experienced C57BL/6 mice; for Day 63 (GMC), serum gE-binding IgG: Day 63 (1 month post dose 1); for Day 76 (GMC), serum gE-binding IgG: Day 76 (13 days post dose 2/boost)
Description: Serum IgG levels were determined for each mouse sample using the LUMINEX® platform. Briefly, diluted sera were incubated in the dark in the presence of blocked, recombinant gE protein-bound single-plex microspheres (MAGPLEX® Microspheres, region 79) for 20±4 hours at 2-8° C., 300 rpm. A secondary antibody solution (R-phycoerythrin Conjugated AffiniPure F(ab)′2 Fragment Goat Anti-Mouse IgG F(ab)′2 Fragment Specific) was prepared at 1:250 in LXA-16 buffer. Plates were washed three times in LXA-20 (EIA-7), and secondary antibody was applied to each well of the assay plate. Plates were covered with aluminum sealers and incubated for 2 hours±15 minutes at 25° C., 300 rpm. Plates were washed three times with LXA-20 (EIA-7) buffer, and 100 ul LXA-20 was applied to each well. Plates were covered with aluminum sealers and incubated at 25° C., 300 rpm for a minimum of 4 minutes, or up to 2 hours. Plates were analyzed on a BIO-PLEX® Reader. IgG titers for Day, 28, 34 and 42 are show in Table 10 and FIGS. 17-19.
as §1, §2
Serum IgG levels were determined for each mouse sample using the LUMINEX® platform (described herein). IgG titers for Day 35, 63 (1 month post dose 1) and 76 (13 days pose dose 2) are show in Table 12 and FIGS. 22-24. Each data point in the figures is a result from an individual animal; each horizontal lines represents the geometric mean IgG concentration (μg/ml) and whiskers represent the 95% confidence interval.

[3] = test system: human embryonic kidney (HEK) 293T cells; test: In vitro expression (IVE) of VZV RNA-LNP vaccines in HEK 293T cells (FACS); type: cell-based; conditions: for VZV RNA-LNPs (293T cells) MFI: Table 8; for VZV RNA-LNPs (293T cells) EC50 (ng/well): Table 8, FIG. 15, input RNA vs percentage of gE-expressing cells, 24 hours
Description: In vitro expression (IVE) analyses were conducted to assess the potency of VZV RNA-LNP vaccines. RNA constructs were formulated into LNPs as previously described in Example 3, and a range of input VZV RNA-LNP quantities was transfected into human embryonic kidney (HEK) 293T cells for 24 hours at 37° C., 5% CO2. Transfected cells were washed with DPBS, detached from plate wells using ACCUTASE®, and rinsed with cold PBS. Cells were subjected to live/dead staining, fixation, and permeabilization prior to FACS staining. Fixed and permeabilized cells were incubated with an anti-gE primary antibody (1:1000) for 45 minutes at 2-8° C., washed twice with BD PERM/WASH™ buffer and incubated with a goat anti-human kappa-PE secondary antibody (1:1000) for 30 minutes at 2-8° C. Cells were washed twice with BD PERM/WASH™ buffer, resuspended in 1×FACS buffer, and analyzed on a BD LSRII to determine the proportion of cells expressing VZV gE for each VZV RNA-LNP input. A titration curve was created whereby input RNA quantities were plotted against the percentage of gE-expressing cells to determine the EC50 of each VZV RNA-LNP vaccine.

[4] = Day 48 (13 days post dose 1), 1 μg IM Day 35
[5] = Day 76 (13 days post dose 2/boost), 1 μg IM Days 35 and 63

## ms5 CO1: modRNA construct, ORF SEQ ID NO: 153, VZV gE with deletion of aa 582-623
VZV gE [1]; [4]
  gE-specific IgG+ B cells: 4.14%
VZV gE [1]; [5]
  gE-specific IgG+ B cells: 2.19%
VZV gE [2]; 0.5 μg group
  Day 35 (GMC), serum gE-binding IgG: 0.11 µg/mL
VZV gE [2]; 1 μg group
  Day 35 (GMC), serum gE-binding IgG: 0.14 µg/mL
VZV gE [2]; 0.5 μg IM Day 35
  Day 63 (GMC), serum gE-binding IgG: 41 µg/mL
VZV gE [2]; 0.5 μg IM Days 35 and 63
  Day 76 (GMC), serum gE-binding IgG: 556 µg/mL
VZV gE [2]; 1 μg IM Day 35
  Day 63 (GMC), serum gE-binding IgG: 76 µg/mL
VZV gE [2]; 1 μg IM Days 35 and 63
  Day 76 (GMC), serum gE-binding IgG: 530 µg/mL
[3]
  VZV RNA-LNPs (293T cells) MFI: 543
  VZV RNA-LNPs (293T cells) EC50 (ng/well): 14 ng/well

## ms6 CO2: modRNA construct, ORF SEQ ID NO: 157, VZV gE with deletion of aa 539-623, secreted
VZV gE [1]; [4]
  gE-specific IgG+ B cells: 1.85%
VZV gE [1]; [5]
  gE-specific IgG+ B cells: 1.38%
VZV gE [2]; 0.5 μg group
  Day 35 (GMC), serum gE-binding IgG: 0.28 µg/mL
VZV gE [2]; 1 μg group
  Day 35 (GMC), serum gE-binding IgG: 0.19 µg/mL
VZV gE [2]; 0.5 μg IM Day 35
  Day 63 (GMC), serum gE-binding IgG: 50 µg/mL
VZV gE [2]; 0.5 μg IM Days 35 and 63
  Day 76 (GMC), serum gE-binding IgG: 464 µg/mL
VZV gE [2]; 1 μg IM Day 35
  Day 63 (GMC), serum gE-binding IgG: 58 µg/mL
VZV gE [2]; 1 μg IM Days 35 and 63
  Day 76 (GMC), serum gE-binding IgG: 723 µg/mL
[3]
  VZV RNA-LNPs (293T cells) MFI: 162
  VZV RNA-LNPs (293T cells) EC50 (ng/well): 220 ng/well
